Test results from PMC4565635, “6-Shogaol Inhibits Breast Cancer Cells and Stem Cell-Like Spheroids by Modulation of Notch Signaling Pathway and Induction of Autophagic Cell Death” (PLoS ONE, 2015).

How the values were obtained:
MCF-7 monolayer cells = test: MTT cytotoxicity assay, monolayer; assay type: cell-based, human; conditions: drug added one day after seeding
Method: (§1) Monolayer cells (5×10^3cells/well) were seeded in quadruplicates in 96 well plates and were incubated with varying concentrations of 6-shogaol (1–100 μM), taxol (0.2–100 nM) or curcumin (4–80 μM). The effect of the drugs on the viability of all the cell lines was quantified by MTT (3-[4,5-dimethylthiazol-2-yl]-2,5 diphenyltetrazolium bromide) assay at different time points after drug treatment using a Biorad Plate reader. The IC50 values were calculated from the plot of percentage cell viability versus concentration of drug using the nonlinear regression programme of Origin.

[1] = test system: MDA-MB-231 monolayer cells; test: MTT cytotoxicity assay, monolayer; assay type: cell-based, human; conditions: drug added one day after seeding
Method: as §1

MCF-7 spheroid [2] = test: MTT cytotoxicity assay, spheroids; assay type: cell-based, human; conditions: for IC50: MTT, 48 hours, drug added three days after seeding
Method: (§2) To check the effect of different drugs on the viability of spheroids, cells were seeded at 2.5×10^4 cells/well in 24-well ultra-low attachment plates and grown as spheroids. After 3 days, 6-shogaol (1–100 μM) or taxol (5 nM-50 μM) or curcumin (2–50 μM) was added to the wells and MTT assay was performed as explained above. Standard deviation was calculated from three independent experiments and the data were represented as the average of three experiments.

MDA MB-231 spheroid = test: MTT cytotoxicity assay, spheroids; assay type: cell-based, human; conditions: for IC50: MTT, 48 hours, drug added three days after seeding
Method: as §2

HEK 293 cells = test: MTT cytotoxicity assay, noncancerous cells; assay type: cell-based, human
Method: as §1

HaCaT cells = test: MTT cytotoxicity assay, noncancerous cells; assay type: cell-based, human; conditions: 48 hours
Method: as §1

MCF-7 monolayer = test: Cell cycle analysis by flow cytometry (propidium iodide); assay type: cell-based, human; conditions: 16 μM (2×IC50), control 29%
Method: (§3) Cell cycle distribution of cells treated with 6-shogaol was analyzed by flow cytometric measurement of cellular DNA content. MCF-7 cells (5×10^5 cells/well) were subjected to 6-shogaol treatment for various time points. Culture media containing detached cells were collected and attached cells were trypsinized. Cells were pelleted, fixed in 70% (v/v) ethanol and stored at 4°C. In case of spheroids, cells were treated with different concentrations of 6-shogaol for 48 hours and fixed for further analysis. Before analysis, cells were re-washed with PBS and incubated with 10 μg/ml RNaseA and 400 μg/ml propidium iodide for 30 minutes at 37°C. Data were analyzed using FACS Diva software.

MCF-7 spheroid [3] = test: as above; assay type: cell-based, human; conditions: 25 μM, 48 hours; control 24%
Method: as §3

MCF-7 cells [4] = test: DAPI staining for apoptosis (chromatin condensation); assay type: cell-based, human; conditions: 25 μM
Method: Cells were seeded on cover slips. […] Cells were washed with PBS, fixed with Methanol-EDTA for 10 minutes at -20°C followed by rehydration with PBS at room temperature and incubated with 1 μg/ml DAPI. Mounted coverslips were visualised at 40X magnification under fluorescence microscope (Olympus IX71). Apoptotic cells were counted from five different fields.

MCF-7 cells [5] = test: Annexin V/PI flow-cytometric apoptosis assay; assay type: cell-based, human; conditions: 25 μM, 48 hours
Method: Apoptosis was quantified by using a FITC Annexin V Apoptosis Detection kit according to manufacturer’s instructions. MCF-7 cells were treated with 15 μM and 25 μM of 6-shogaol for 24, 48 and 72 hours, respectively. Attached and floating cells were collected and analyzed by a flow cytometer (BD FACS Aria II).

LC3-II in MCF7 cells = test: Western blot of LC3-II expression; assay type: cell-based, human; conditions: 48 hours
Method: Lysates were placed into ice for 1 hour to ensure complete lysis followed by centrifugation at 14,000 g for 10 minutes and the supernatant was collected. Proteins were subjected to SDS-PAGE and transferred to polyvinylidene fluoride membrane. The membranes were blocked and incubated overnight with primary antibodies at 4°C followed by incubation with horseradish peroxidase tagged secondary antibodies. The blots were developed using ECL reagent. The primary antibodies were used in the following dilutions: Cleaved Notch1 (1:2000), Hes1 (1:200), Cyclin D1 (1:400), PARP (1:500 for sc) and (1:1000 for CST), LC3A/B (1:500), Bcl-2 (1:1000), Bax (1:1000) and β-actin (1:2000). β-actin was used as loading controls.
Densitometry was conducted for all the western blots using […] software (Bio-Rad). Normalisation was done according to the loading control and fold change was calculated with respect to the control. For graphs, results are depicted as mean ± standard error of mean or standard deviation (calculated from two or more experiments). The p-values were obtained using Student’s unpaired t-test and p < 0.05 was considered to be statistically significant.

[6] = test system: breast cancer spheroids (CD44+CD24-/low cells); test: Flow cytometric analysis of cell surface markers CD44/CD24; assay type: cell-based, human; conditions: 40 μM, 18 hours; untreated 27.3%
Method: Monolayer cells or spheroids (with or without treatment of 6-shogaol) were dispersed by trypsin-EDTA. Cells were then pelleted down by centrifugation at 1600 rpm for 5 minutes at 4°C and resuspended in 1 ml of DMEM containing 2% FBS. Fluorescein isothiocyanate (FITC)-conjugated CD24 monoclonal antibody and phycoerythrin (PE)-conjugated CD44 monoclonal antibody (BD Biosciences) were added in 1:100 dilution and incubated on ice for 45 minutes in dark. The cells were then analyzed by flow cytometer (BD FACS Aria II) for the expression of CD24 and CD44.

MCF-7 spheroids [7] = test: Primary sphere formation; assay type: cell-based, human
Method: (§4) 5000 cells/well were seeded in ultra low attachment plates. After 3 days of seeding, the spheres formed were kept with different concentrations of 6-shogaol and/or 25 μM DAPT for 7 days and the number of spheres were counted under the microscope. These primary spheres were dispersed and kept in fresh media without any treatment and counted again after 7 days to check the ability to regrow into secondary spheres. Control primary spheres were also processed similarly for comparison. Spheres were counted in Olympus IX71 microscope using 10X objective.

MCF-7 spheroids [8] = test: Secondary sphere formation; assay type: cell-based, human; conditions: for inhibition of secondary spheroid colonies: regrown 1 week without compound
Method: as §4

breast cancer spheroids = test: Apoptosis detection in spheroids; assay type: cell-based, human; conditions: 40 μM, upto 72 or 96 hours
[9] = test system: MRC5, NP69, HaCaT and HMEC; parameters: method as in PMID 23612072; conditions: cited from earlier work

## CCCCC/C=C/C(=O)CCc1ccc(O)c(OC)c1 [6-shogaol]
MCF-7 monolayer cells; 48 hours
  IC50: 7.94 ± 0.57 µM
[1]; 48 hours
  IC50: 5.67 ± 0.73 µM
MCF-7 spheroid [2]; 10 μM, after 6 days
  inhibition of cell viability: 46%
MCF-7 spheroid [2]; 10 μM, day 4
  inhibition of cell viability: ~ 35%
MCF-7 spheroid [2]; 20 μM, day 4
  inhibition of cell viability: 56%
MCF-7 spheroid [2]; 40 μM, day 4
  inhibition of cell viability: 83%
MCF-7 spheroid [2]; MCF-7 spheroids vs MCF-7 monolayer
  effective concentration in spheroids versus monolayer cells: 5 fold
MCF-7 spheroid [2]
  IC50: 39.5 ± 0.62 µM
MDA MB-231 spheroid; MDA-MB-231 spheroids vs MDA-MB-231 monolayer
  effective concentration in spheroids versus monolayer cells: 2 fold
MDA MB-231 spheroid
  IC50: 11.2 ± 0.83 µM
MDA MB-231 spheroid; more potent against MDA-MB-231 spheroids
  potency against MDA-MB-231 spheroids versus MCF-7 spheroids: ~ 3 fold
HEK 293 cells; 48 hours
  IC50: 69.97 ± 0.52 µM
HaCaT cells
  IC50: 103.8 ± 0.67 µM
MCF-7 monolayer; 24h
  percentage of cells in G2/M: 48%
MCF-7 monolayer; 48h
  percentage of cells in G2/M: 55%
MCF-7 spheroid [3]
  percentage of cells in G2/M: 42%
MCF-7 cells [4]; 48 hours
  apoptosis as measured by chromatin condensation: 19%
MCF-7 cells [4]; 72 hours
  apoptosis as measured by chromatin condensation: 28%
MCF-7 cells [5]
  early apoptotic cells (Annexin positive/PI negative): 11%
LC3-II in MCF7 cells; 5 μM 6-shogaol alone, relative to control
  fold increase in LC3-II expression: 1.8 fold
LC3-II in MCF7 cells; 5 μM 6-shogaol in combination with low concentration of chloroquine
  fold increase in LC3-II expression: 3.3 fold
LC3-II in MCF7 cells; 15 μM 6-shogaol alone, relative to control
  fold increase in LC3-II expression: 2.1 fold
LC3-II in MCF7 cells; 15 μM 6-shogaol in combination with low concentration of chloroquine
  fold increase in LC3-II expression: 3.43 fold
[6]
  percentage of CD44+CD24-/low cells (Q1): 2.3%
MCF-7 spheroids [7]; 1 μM, 7 days
  reduction of number of primary spheroid colonies: 2 fold
MCF-7 spheroids [7]; 1 μM, 7 days continuous treatment, control 96
  average number of spheroid colonies (primary): 48 colonies
MCF-7 spheroids [7]; 40 μM, 7 days
  inhibition of primary spheroid colonies: 24 fold
MCF-7 spheroids [7]; 40 μM, 7 days continuous treatment, control 96
  number of spheroid colonies (primary): 4 colonies
MCF-7 spheroids [8]; concentrations above 10 μM
  secondary sphere formation: Not a single secondary sphere was found
MCF-7 spheroids [8]; primary spheroids treated with 1 μM for 1 week, control ~55 colonies
  inhibition of secondary spheroid colonies: 71%
MCF-7 spheroids [8]; primary spheroids treated with 5 μM for 1 week
  inhibition of secondary spheroid colonies: 80%
MCF-7 spheroids [8]; primary spheroids treated with 10 μM for 1 week
  inhibition of secondary spheroid colonies: 94.5%
Breast cancer spheroids
  apoptosis in breast cancer spheroids: not able to detect appreciable amount of apoptosis
[9]
  toxicity to normal cells: not toxic

## COc1cc(/C=C/C(=O)CC(=O)/C=C/c2ccc(O)c(OC)c2)ccc1O [Curcumin, curcumin]
MCF-7 monolayer cells; Homo sapiens, MCF7, 48 hours
  IC50: 37.1 ± 0.85 µM
MCF-7 spheroid [2]; Homo sapiens, MCF7
  IC50: 7.27 ± 0.54 µM
HEK 293 cells; Homo sapiens, HEK293, 48 hours
  IC50: 23.1 ± 0.68 µM
HaCaT cells; Homo sapiens, HaCaT
  IC50: 10.4 ± 0.87 µM

## CC(=O)O[C@H]1C(=O)[C@@]2(C)[C@H]([C@H](OC(=O)c3ccccc3)[C@]3(O)C[C@H](OC(=O)[C@H](O)[C@@H](NC(=O)c4ccccc4)c4ccccc4)C(C)=C1C3(C)C)[C@]1(OC(C)=O)CO[C@@H]1C[C@@H]2O [Taxol, reference compound]
MCF-7 monolayer cells; Homo sapiens, MCF7, 48 hours
  IC50: 0.00492 ± 0.00071 µM
[1]; Homo sapiens, MDA-MB-231, 48 hours
  IC50: 0.00286 ± 0.00066 µM
MCF-7 spheroid [2]; Homo sapiens, MCF7
  IC50: > 50 µM
MDA MB-231 spheroid; Homo sapiens, MDA-MB-231
  IC50: > 20 µM
HEK 293 cells; Homo sapiens, HEK293, 48 hours
  IC50: 0.1038 ± 0.00048 µM
HaCaT cells; Homo sapiens, HaCaT
  IC50: 0.0427 ± 0.00075 µM
